Experimental findings from patent publication US20050009124A1, “Assays for detection of phosphoinositide kinase and phosphatase activity” (Echelon Biosciences Incorporated, priority 2001, published 2005) are described below.

Experiment [1] concerns PI(4,5)P2-specific LRP derived from PLCδ. Nature of the experiment: AlphaScreen binding and competition with PI(4,5)P2-specific LRP. Particulars: biotinylated PI(4,5)P2 and PLCδ kept constant. As to the method:
The present invention provides ALPHAScreen™ assays to detect specific binding and competition of phosphoinositide diphosphates using antibodies or LRPs. This approach can be used in competitive assays for the detection of PI(3,4)P2 and PI(4,5)P2 produced by lipid phosphatase or kinase activity. […] Increasing amounts of unlabeled PI(4,5)P2 or PI(3,4,5)P3 were added while levels of PLCδ and PI(4,5)P2 were kept constant. PI(4,5)P2 competition is approximately 90-fold greater than PI(3,4,5)P3 competition, indicating a high degree of specificity for recognition of PI(4,5)P2.
For orientation: In Alpha technology, singlet oxygen from a donor bead excites a nearby acceptor bead.

The target in another experiment is T1, SMQ-Grp1 (Homo sapiens, UniProt O43739).
T1 construct: small molecular quencher (Dabcyl, QSY 7 or QSY 9); made in house
T1 sequence (O43739 1-400): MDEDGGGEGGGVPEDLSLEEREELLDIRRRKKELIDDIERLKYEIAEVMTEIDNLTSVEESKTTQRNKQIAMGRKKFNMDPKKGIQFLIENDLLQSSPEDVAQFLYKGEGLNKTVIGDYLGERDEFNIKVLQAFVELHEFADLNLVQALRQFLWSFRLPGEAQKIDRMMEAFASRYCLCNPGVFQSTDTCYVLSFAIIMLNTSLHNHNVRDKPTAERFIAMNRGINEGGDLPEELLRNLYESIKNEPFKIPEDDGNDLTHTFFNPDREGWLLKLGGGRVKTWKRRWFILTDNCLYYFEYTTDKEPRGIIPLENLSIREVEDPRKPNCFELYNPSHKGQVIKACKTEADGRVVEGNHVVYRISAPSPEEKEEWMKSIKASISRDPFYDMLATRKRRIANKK
Put plainly: Competitive dequenching fluorogenic assay with SMQ-Grp1. It is filed as binding. The note with it: increasing amounts of competitor, compared with diC8 PI(3,4,5)P3. How it is done:
The fluorogenic assays were set up in a black 384-well plate. The combination of 100 nM, 10 nM and 1 nM of SMQ-Grp1 conjugate was incubated with 100 nM, 50 nM and 25 nM BODIPY®-FL-labeled PI(3,4,5)P3. The total assay volume was […] in a PBS buffer at a pH of 7.5. The assay mixture was incubated in the dark for one hour at 25° C. The plate was then transferred to an Alpha Fusion plate reader and read with a 485/520 nm filter. […] For example, if BODIPY®-FL-PI(3,4,5)P3 is fixed at 25 nM, increasing the amount of Dabcyl-Grp1 conjugate (from 1 nM to 100 nM) caused decreasing amounts of fluorescence (FIG. 24). Similar fluorescence quenching profiles were shown for QSY 7-Grp1 and QSY 9-Grp1.
The quenching effects of BODIPY®-FL-PI(3,4,5)P3 by SMQ-Grp1 were specific. diC8 PI(3,4,5)P3 as a competitor antagonized the fluorescence quenching effect of BODIPY®-FL-PI(3,4,5)P3 by SMQ-Grp1 in a dose-response manner. diC8 PI(3,4,5)P3 was used at varying concentrations to compete with BODIPY®-FL-PI(3,4,5)P3 for binding to the SMQ-Grp1 conjugate. […] In each bar graph in FIG. 25, from the right to the left, the bars show the fluorescence reading of PBS as the background, the diC8 PI(3,4,5)P3 only, the SMQ-Grp1 conjugate only, BODIPY®-FL-PI(3,4,5)P3 only, Grp1-SMQ plus BODIPY®-FL-PI(3,4,5)P3, Grp1-SMQ plus BODIPY®-FL-PI(3,4,5)P3 with 10 pmol of diC8 PI(3,4,5)P3 as the competitor, Grp1-SMQ plus BODIPY®-FL-PI(3,4,5)P3 with 100 pmol of diC8 PI(3,4,5)P3 as the competitor, Grp1-SMQ plus BODIPY®-FL-PI(3,4,5)P3 with 1000 pmol of diC8 PI(3,4,5)P3 as the competitor, and Grp1-SMQ plus BODIPY®-FL-PI(3,4,5)P3 with 10000 pmol of diC8 PI(3,4,5)P3 as competitor. […]
Fluorogenic assays were also used to compare competition of diC8 PI(3,4,5)P3 to PI(4,5)P2 and PI(3)P. With increasing amounts of PI(3,4,5)P3 the signal begins to increase, indicating competition, whereas as PI(4,5)P2 and PI(3)P show little change, indicating less competition. […] The production (or presence) of PI(3,4,5)P3 in this assay system corresponds to the elevation of the fluorescence signal.

A further experiment deals with recombinant PI 3-Kinaseα (Homo sapiens, UniProt P42336). Put plainly: Competitive FP assay for PI 3-Kinase activity. The experiment is classed as biochemical. The note with it: substrate conversion at constant enzyme levels.
The target of another experiment is T2, GST-GRP1-PH (Homo sapiens, UniProt O43739).
T2 construct: The PH domain of GRP1 (general receptor for phosphoinositides) was used as a detector for PI(3,4,5)P3
T2 sequence (O43739 264-381 limits assumed): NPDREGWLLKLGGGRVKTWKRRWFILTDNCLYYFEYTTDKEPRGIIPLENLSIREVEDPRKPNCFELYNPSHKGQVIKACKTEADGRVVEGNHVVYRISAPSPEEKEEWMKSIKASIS
Put plainly: Competitive FP assay, displacement of fluorescent tracer from GST-GRP1-PH. The experiment is classed as binding. The note with it: amounts over 100-fold greater than PI(3,4,5)P3. How it is done: In order to use these reagents in a competitive FP assay, unlabeled phosphoinositide products of an enzymatic reaction must be able to successfully compete with the labeled tracer for interaction with the binding proteins. In addition, the level of cross-reactivity of binding proteins with the phosphoinositides used as enzyme substrates should be minimal. To examine the suitability of these phosphoinositide binding proteins for this application, competition assays were performed using optimal amounts of lipid binding proteins and fluorescent tracers, mixed with increasing amounts of diC8-phosphoinositide competitors.
The sensitivity of this approach for detecting conversion of PI(4,5)P2 to PI(3,4,5)P3 was evaluated using GST-GRP1-PH protein and FAM and BODIPY®-TMR labeled tracers. Competition assays in which both diC8-PI(3,4,5)P3 and diC8-PI(4,5)P2 were added at increasing concentrations were performed.

recombinant PI 3-Kinaseα, sequence (P42336 whole entry): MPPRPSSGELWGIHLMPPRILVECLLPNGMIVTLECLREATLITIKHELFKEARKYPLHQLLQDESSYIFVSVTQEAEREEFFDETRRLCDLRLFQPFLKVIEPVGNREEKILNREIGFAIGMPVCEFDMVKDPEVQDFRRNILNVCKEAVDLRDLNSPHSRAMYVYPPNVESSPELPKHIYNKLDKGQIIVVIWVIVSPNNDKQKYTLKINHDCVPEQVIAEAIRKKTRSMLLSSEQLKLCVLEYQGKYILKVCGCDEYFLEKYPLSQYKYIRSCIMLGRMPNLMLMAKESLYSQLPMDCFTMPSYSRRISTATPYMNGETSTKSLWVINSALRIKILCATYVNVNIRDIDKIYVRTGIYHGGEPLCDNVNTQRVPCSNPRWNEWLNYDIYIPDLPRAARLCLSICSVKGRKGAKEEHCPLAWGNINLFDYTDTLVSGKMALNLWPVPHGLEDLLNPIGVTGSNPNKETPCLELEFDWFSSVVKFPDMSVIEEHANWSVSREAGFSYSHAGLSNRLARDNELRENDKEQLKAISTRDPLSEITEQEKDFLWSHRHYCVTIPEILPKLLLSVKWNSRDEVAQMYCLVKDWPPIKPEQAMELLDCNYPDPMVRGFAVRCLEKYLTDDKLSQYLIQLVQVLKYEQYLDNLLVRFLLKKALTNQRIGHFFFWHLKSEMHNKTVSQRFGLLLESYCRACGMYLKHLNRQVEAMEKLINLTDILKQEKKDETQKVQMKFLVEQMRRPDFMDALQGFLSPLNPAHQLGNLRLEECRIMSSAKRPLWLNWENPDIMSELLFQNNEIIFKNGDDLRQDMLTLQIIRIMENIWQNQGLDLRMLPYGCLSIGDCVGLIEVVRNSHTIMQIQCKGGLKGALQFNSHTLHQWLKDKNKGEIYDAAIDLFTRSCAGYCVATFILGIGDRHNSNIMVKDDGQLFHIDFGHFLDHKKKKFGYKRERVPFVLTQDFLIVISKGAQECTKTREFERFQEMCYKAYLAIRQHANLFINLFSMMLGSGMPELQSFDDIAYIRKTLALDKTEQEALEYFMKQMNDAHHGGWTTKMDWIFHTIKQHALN
recombinant PI 3-Kinaseα, sequence (P27986 whole entry partner): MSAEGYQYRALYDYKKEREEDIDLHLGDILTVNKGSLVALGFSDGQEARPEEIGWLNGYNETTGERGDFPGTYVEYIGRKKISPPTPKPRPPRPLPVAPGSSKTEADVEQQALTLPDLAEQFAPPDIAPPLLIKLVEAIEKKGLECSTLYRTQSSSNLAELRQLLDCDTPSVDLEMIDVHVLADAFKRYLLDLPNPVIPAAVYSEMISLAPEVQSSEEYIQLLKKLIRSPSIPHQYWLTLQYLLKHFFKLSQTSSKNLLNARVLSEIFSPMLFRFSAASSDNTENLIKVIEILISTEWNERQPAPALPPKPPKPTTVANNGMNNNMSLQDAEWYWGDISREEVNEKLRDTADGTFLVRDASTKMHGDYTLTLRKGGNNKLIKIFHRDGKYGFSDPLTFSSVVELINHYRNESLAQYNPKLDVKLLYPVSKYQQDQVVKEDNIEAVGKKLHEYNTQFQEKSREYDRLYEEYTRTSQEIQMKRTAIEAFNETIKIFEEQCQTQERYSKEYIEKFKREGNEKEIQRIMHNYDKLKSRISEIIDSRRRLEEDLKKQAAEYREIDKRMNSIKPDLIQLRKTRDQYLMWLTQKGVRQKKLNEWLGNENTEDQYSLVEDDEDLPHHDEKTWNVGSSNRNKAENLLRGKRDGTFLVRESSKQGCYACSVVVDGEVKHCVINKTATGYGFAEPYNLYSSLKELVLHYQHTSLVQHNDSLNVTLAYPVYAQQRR
From the text for recombinant PI 3-Kinaseα: The FP assays developed for the detection of PI 3-Kinase and SHIP2 activity were designed as competitive assays in which the enzyme product would compete with a fluorescently labeled synthetic phosphoinositide or inositol phosphate tracer for binding to a specific phosphoinositide binding protein. As the products of the enzymatic reaction increase, the soluble phosphoinositide products compete for the interaction of the binding protein and the fluorescent tracer, leading to a decrease in mP values as the amount of depolarized free tracer increases. Thus, changes in polarization should be inversely proportional to the degree of enzyme activity.
These assays involve four steps. First, the enzyme and substrate phosphoinositide are combined in an appropriate reaction buffer and the reaction is allowed to proceed. […] Finally, polarization values are measured to determine the extent of enzyme activity in the reaction.
The ability of FP competitive assays to detect the production of phosphoinositide products of PI 3-Kinaseα activity was tested using recombinant PI 3-Kinaseα. […] The production of PI(3,4,5)P3 was detected as a decrease in mP values as enzyme products compete with I(1,3,4,5)P4-BODIPY®-TMR for interaction with the binding protein.

Regarding PI(4,5)P2, the “competition relative to PI(3,4,5)P3 competition” value in experiment [1] is listed as “approximately 90 fold”. Moreover, the “change of fluorescence signal (competition)” value at SMQ-Grp1 is “little change”.
As for `CCCCCCCC(=O)OC[C@H](COP(=O)(O)O[C@@H]1[C@H](O)[C@H](O)[C@@H](OP(=O)(O)O)[C@H](OP(=O)(O)O)[C@H]1O)OC(=O)CCCCCCC` [diC8-PI(4,5)P2], the Km – broadly, the concentration of substrate that gives half-maximal velocity – on recombinant PI 3-Kinaseα was around 3000 nM. At GST-GRP1-PH, the “effect on interaction of binding protein with fluorescent tracers” value was “minimal effect”.
